Experimental data as given in ChEMBL document CHEMBL4364310, “Design, synthesis and biological evaluation of novel α-aminophosphonate oxadiazoles via optimized iron triflate catalyzed reaction as apoptotic inducers” (Eur J Med Chem, 2019).

How the values were obtained:
[1] = tested on: HepG2; experiment: Antiproliferative activity against human HepG2 cells assessed as reduction in cell viability incubated for 48 hrs by MTT assay; format: functional, cell-based; details: HepG2, 48 h
[2] = tested on: MCF7; experiment: Antiproliferative activity against human MCF7 cells assessed as reduction in cell viability incubated for 48 hrs by MTT assay; format: functional, cell-based; details: MCF7, 48 h
[3] = tested on: HCT-116; experiment: Antiproliferative activity against human HCT116 cells assessed as reduction in cell viability incubated for 48 hrs by MTT assay; format: functional, cell-based; details: HCT-116, 48 h
[4] = tested on: HCT-116; experiment: Induction of apoptosis in human HCT116 cells assessed as increase in Bax level by ELISA relative to control; format: functional
[5] = tested on: HCT-116; experiment: Induction of apoptosis in human HCT116 cells assessed as increase in caspase 9 level by ELISA relative to control; format: functional
[6] = tested on: HCT-116; experiment: Induction of cell cycle arrest in human HCT116 cells assessed as accumulation in preG phase incubated for 24 hrs by annexin V FITC and propidium iodide staining based flow cytometry (reference value: 1.75 %); format: functional
[7] = tested on: HCT-116; experiment: Induction of apoptosis in human HCT116 cells assessed as necrotic cells incubated for 24 hrs by annexin V FITC and propidium iodide staining based flow cytometry (reference value: 0.46 %); format: functional
[8] = tested on: HCT-116; experiment: Induction of apoptosis in human HCT116 cells assessed as decrease in Bcl 2 level by ELISA relative to control (reference value: 10.1 +/- 0.73 ng/ml); format: functional
[9] = tested on: HCT-116; experiment: Induction of apoptosis in human HCT116 cells assessed as increase in caspase 3 level by ELISA relative to control; format: functional
[10] = tested on: HCT-116; experiment: Induction of apoptosis in human HCT116 cells assessed as increase in cytochrome C by ELISA relative to control; format: functional
[11] = Selectivity index, ratio of IC50 for human FHC cells to IC50 for human HCT116 cells; format: toxicity; details: FHC cells and HCT116 cells, read-out: Ratio IC50
[12] = tested on: HCT-116; experiment: Induction of cell cycle arrest in human HCT116 cells assessed as accumulation in G2/M phase incubated for 24 hrs by annexin V FITC and propidium iodide staining based flow cytometry (reference value: 18.29 %); format: functional
[13] = tested on: HCT-116; experiment: Induction of cell cycle arrest in human HCT116 cells assessed as accumulation in G0/G1 phase incubated for 24 hrs by annexin V FITC and propidium iodide staining based flow cytometry (reference value: 46.72 %); format: functional
[14] = tested on: HCT-116; experiment: Induction of apoptosis in human HCT116 cells assessed as early apoptotic cells incubated for 24 hrs by annexin V FITC and propidium iodide staining based flow cytometry (reference value: 0.9 %); format: functional
[15] = tested on: FHC; experiment: Cytotoxicity against human FHC cells assessed as reduction in cell viability incubated for 48 hrs by MTT assay; format: cell-based
[16] = tested on: HCT-116; experiment: Induction of cell cycle arrest in human HCT116 cells assessed as accumulation in S phase incubated for 24 hrs by annexin V FITC and propidium iodide staining based flow cytometry (reference value: 34.99 %); format: functional
[17] = tested on: HCT-116; experiment: Induction of apoptosis in human HCT116 cells assessed as increase in caspase 8 level by ELISA relative to control; format: functional
[18] = tested on: HCT-116; experiment: Induction of apoptosis in human HCT116 cells assessed as late apoptotic cells incubated for 24 hrs by annexin V FITC and propidium iodide staining based flow cytometry (reference value: 0.39 %); format: functional

Structure (SMILES) | IC50 [1] | IC50 [2] | IC50 [3] | also measured
CCOP(=O)(OCC)C(NNC(=O)CSc1nnc(-c2ccncc2)o1)c1ccc(C)cc1 (stereo unspecified) | 19.5 µM | 86.3 µM | 17.6 µM | 
CCOP(=O)(OCC)C(NNC(=O)CSc1nnc(-c2ccncc2)o1)c1ccc2ccccc2c1 (stereo unspecified) | 25.8 µM | 57.3 µM | 9.5 µM | fold change (FC) [4]: 5.78; fold change (FC) [5]: 8.85; Activity [6]: 19.24%; Activity [7]: 2.14%; Activity [8]: 5.945 ng/mL; fold change (FC) [9]: 5.99; fold change (FC) [10]: 5.69; selectivity ratio [11]: 2.46; Activity [12]: 37.97%; Activity [13]: 30.56%; Activity [14]: 4.59%; IC50 [15]: 23.4 µM; Activity [16]: 31.47%; fold change (FC) [17]: 3.64; Activity [18]: 12.51%
CCOP(=O)(OCC)C(NNC(=O)CSc1nnc(-c2ccncc2)o1)c1ccccc1 (stereo unspecified) | 23.5 µM | 99.1 µM | 22.5 µM | 
CCOP(=O)(OCC)C(NNC(=O)CSc1nnc(-c2ccncc2)o1)c1ccc(F)cc1 (stereo unspecified) | 21.5 µM | 70.6 µM | 31.3 µM | 
CCOP(=O)(OCC)C(NNC(=O)CSc1nnc(-c2ccncc2)o1)c1ccc(Br)cc1 (stereo unspecified) | 31 µM | 64.4 µM | 17.3 µM | 
CCOP(=O)(OCC)C(NNC(=O)CSc1nnc(-c2ccncc2)o1)c1ccc(O)c(O)c1 (stereo unspecified) | 27.3 µM | 63.4 µM | 21.1 µM | 
CCOP(=O)(OCC)C(NNC(=O)CSc1nnc(-c2ccncc2)o1)c1ccc(O)cc1 (stereo unspecified) | 14.8 µM | 52.9 µM | 14.6 µM | 
CCOP(=O)(OCC)C(NNC(=O)CSc1nnc(-c2ccncc2)o1)c1ccc(C#N)cc1 (stereo unspecified) | 13.6 µM | 41.7 µM | 12.7 µM | 
CCOP(=O)(OCC)C(NNC(=O)CSc1nnc(-c2ccncc2)o1)c1cc(OC)ccc1OC (stereo unspecified) | 20.3 µM | 61.6 µM | 24.6 µM | 
CCOP(=O)(OCC)C(NNC(=O)CSc1nnc(-c2ccncc2)o1)c1cccc(OC)c1 (stereo unspecified) | 53.9 µM | 52.3 µM | 19.2 µM | 
CCOP(=O)(OCC)C(NNC(=O)CSc1nnc(-c2ccncc2)o1)c1ccc([N+](=O)[O-])cc1 (stereo unspecified) | 18.1 µM | 58.8 µM | 15 µM | 
CCOP(=O)(OCC)C(NNC(=O)CSc1nnc(-c2ccncc2)o1)c1ccccc1Cl (stereo unspecified) | 19.2 µM | 62.9 µM | 9.2 µM | fold change (FC) [4]: 6.18; fold change (FC) [5]: 11.61; Activity [6]: 26.23%; Activity [7]: 3.28%; Activity [8]: 5.088 ng/mL; fold change (FC) [9]: 7.78; fold change (FC) [10]: 6.72; selectivity ratio [11]: 3.9; Activity [12]: 46.33%; Activity [13]: 24.91%; Activity [14]: 7.26%; IC50 [15]: 35.9 µM; Activity [16]: 28.76%; fold change (FC) [17]: 6.4; Activity [18]: 15.69%
CCOP(=O)(OCC)C(NNC(=O)CSc1nnc(-c2ccncc2)o1)c1cccs1 (stereo unspecified) | 13.9 µM | 47.8 µM | 17.1 µM | 
COc1cccc2c1C(=O)c1c(O)c3c(c(O)c1C2=O)C[C@@](O)(C(=O)CO)C[C@@H]3O[C@H]1C[C@H](N)[C@H](O)[C@H](C)O1 [DOXORUBICIN] | 10.4 µM |  | 9.4 µM | 
